Data: patent publication US20230118577A1, “NEUROACTIVE STEROIDS AND PHARMACEUTICAL COMPOSITION CONTAINING THE SAME” (Brii Biosciences, Inc., priority 2020, published 2023)
Like-named read-outs stand apart in the source and are kept apart here.

Tests used:
GABAA α4β3δ = molecular target: T1, GABAA α4β3δ (Homo sapiens, UniProt P28472+P48169); test: Automated patch clamp electrophysiology (SyncroPatch), PAM mode, GABAA α4β3δ cell line; type: cell-based; conditions: for Emax: maximum fold increase in current relative to Allopregnanolone, read-out: GABAA α4β3δ PAM % Emax (to Allo)
T1 construct: expressed in transfected cells; host or cells: HEK293 expressing the Tetracycline repressor protein
Text: (§1) Cellular electrophysiology was used to measure the pharmacology properties of the GABA receptor modulators. The GABAA channels are expressed in stable cell lines described herein. The parental cell line used to express the human GABAA channels is the human embryonic kidney (HEK293) cell line expressing the Tetracycline repressor protein to support inducible expression of the target proteins.
(§2) For the GABAA α4β3δ cell line, the α4 and β3 subunits are under control of tetracycline inducible expression system, while the δ subunit is constitutively expressed. For the GABAA α1β2γ2 cell line, the α1 and β2 subunits are under control of tetracycline inducible expression system, whist the γ2 subunit is constitutively expressed.
(§3) Assessment of the compounds against GABAA α1β2γ2 and GABAA α4β3δ was performed using the SyncroPatch automated platform in positive allosteric modulator (PAM) mode. Six concentrations of 20 nM, 62 nM, 185 nM, 555 nM, 1667 nM and 5000 nM were tested across the plate, with a single concentration of compound per well. A minimum of 3 cells were obtained per each concentration of a compound.
(§4) Automated patch clamp-recordings were performed using the SyncroPatch 384PE. The voltage protocol generation and data collection were performed with PatchController384 V1.6.6 and Data Controller V1.6.0. A steady state voltage pulse at −80 mV was applied during the assay.
(§5) The stacked addition protocol was used, in which γ-aminobutyric acid (GABA) was rapidly applied and then washed off from the cell. To test for positive allosteric modulator activity (PAM), first the agonist GABA EC20 (EC20: 10 μM for GABAA α4β3δ channel and 14 μM GABA for the GABAA α1β2γ2 channel) was applied twice (with wash steps in-between) as a control and to show activation reproducibility, followed by a 1-2 minutes pre-incubation of the tested compound and then re-application of GABA EC20 in the presence of a testing compound. Finally, following a further wash step, maximum GABA (10 mM) was applied.
(§6) An Allopregnanolone concentration response was tested as the control PAM on the compound plates. The fold increase was generated using the following equation, (Icomp/Icontrol)−1, where Icomp is the current amplitude in the presence of the compound and Icontrol is the current amplitude in the presence of GABA EC20 alone. This builds an EC50 concentration-response curve, where 0 represents no PAM activity and >0 represents PAM activity.
(§7) A maximum % Emax for each compound is generated using the following equation, (IMaxComp/IAveMaxAllo)*100, where IMaxcomp is the individual maximum fold increase in current for each compound and IAveMaxAllo is the average maximum fold increase generated in the presence of Allopregnanolone. The resultant % Emax values are then averaged. The compound and Allopregnanolone values were obtained from separate cells which were tested in the same compound run. Two GABAA subtypes were tested against each of the compounds as well as the positive control, Allopregnanolone.

GABAA α1β2γ2 = molecular target: T2, GABAA α1β2γ2 (Homo sapiens, UniProt P14867+P47870); test: Automated patch clamp electrophysiology (SyncroPatch), PAM mode, GABAA α1β2γ2 cell line; type: cell-based; conditions: for Emax: maximum fold increase in current relative to Allopregnanolone, GABA EC20 14 μM, read-out: GABAA α1β2γ2 PAM % Emax (to Allo)
T2 construct: expressed in transfected cells; host or cells: HEK293 expressing the Tetracycline repressor protein
Text: as §1, §2, §3, §4, §5, §6, §7

[1] = PAM mode, HEK293 cells expressing human GABAA α4β3δ, GABA EC20 10 μM, read-out: GABAA α4β3δ PAM EC50
[2] = PAM mode, HEK293 cells expressing human GABAA α1β2γ2, GABA EC20 14 μM, read-out: GABAA α1β2γ2 PAM EC50

T1 sequence (P48169 36-554): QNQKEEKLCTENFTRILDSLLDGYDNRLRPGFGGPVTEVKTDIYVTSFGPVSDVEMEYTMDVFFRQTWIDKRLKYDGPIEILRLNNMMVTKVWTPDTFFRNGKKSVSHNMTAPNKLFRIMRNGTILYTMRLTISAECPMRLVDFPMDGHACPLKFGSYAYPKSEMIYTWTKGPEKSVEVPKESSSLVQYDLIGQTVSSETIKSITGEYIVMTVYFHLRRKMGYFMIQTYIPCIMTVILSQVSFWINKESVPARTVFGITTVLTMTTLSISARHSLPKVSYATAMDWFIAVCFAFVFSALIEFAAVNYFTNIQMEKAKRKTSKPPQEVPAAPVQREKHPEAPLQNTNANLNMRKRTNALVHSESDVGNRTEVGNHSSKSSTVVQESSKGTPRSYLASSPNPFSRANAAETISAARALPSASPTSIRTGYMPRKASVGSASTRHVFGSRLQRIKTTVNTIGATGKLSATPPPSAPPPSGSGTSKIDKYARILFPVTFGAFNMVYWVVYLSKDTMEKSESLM
T1 sequence (P28472 26-473): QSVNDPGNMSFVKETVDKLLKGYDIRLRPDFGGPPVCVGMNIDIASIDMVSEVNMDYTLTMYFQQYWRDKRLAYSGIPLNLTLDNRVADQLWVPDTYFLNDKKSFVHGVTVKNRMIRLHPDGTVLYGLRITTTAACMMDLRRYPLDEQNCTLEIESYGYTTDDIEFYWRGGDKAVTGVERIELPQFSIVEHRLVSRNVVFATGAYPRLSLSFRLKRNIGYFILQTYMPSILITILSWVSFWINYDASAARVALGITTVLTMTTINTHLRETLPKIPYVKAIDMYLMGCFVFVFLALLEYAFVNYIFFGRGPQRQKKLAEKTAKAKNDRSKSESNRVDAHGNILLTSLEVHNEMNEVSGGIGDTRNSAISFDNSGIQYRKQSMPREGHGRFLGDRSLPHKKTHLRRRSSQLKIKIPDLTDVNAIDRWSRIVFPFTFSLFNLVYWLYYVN
T1 sequence (O14764 17-452 partner limits assumed): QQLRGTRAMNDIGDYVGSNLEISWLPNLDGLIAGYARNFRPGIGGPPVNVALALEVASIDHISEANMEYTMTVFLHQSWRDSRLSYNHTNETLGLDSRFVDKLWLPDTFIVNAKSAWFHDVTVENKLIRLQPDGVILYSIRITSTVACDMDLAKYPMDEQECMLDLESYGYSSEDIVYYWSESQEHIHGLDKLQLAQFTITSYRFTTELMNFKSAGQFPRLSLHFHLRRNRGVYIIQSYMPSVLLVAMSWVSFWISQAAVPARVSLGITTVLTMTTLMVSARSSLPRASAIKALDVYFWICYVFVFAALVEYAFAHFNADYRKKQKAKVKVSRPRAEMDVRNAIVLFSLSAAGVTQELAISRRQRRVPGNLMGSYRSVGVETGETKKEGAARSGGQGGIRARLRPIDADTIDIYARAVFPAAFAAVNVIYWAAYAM
T2 sequence (P14867 28-456): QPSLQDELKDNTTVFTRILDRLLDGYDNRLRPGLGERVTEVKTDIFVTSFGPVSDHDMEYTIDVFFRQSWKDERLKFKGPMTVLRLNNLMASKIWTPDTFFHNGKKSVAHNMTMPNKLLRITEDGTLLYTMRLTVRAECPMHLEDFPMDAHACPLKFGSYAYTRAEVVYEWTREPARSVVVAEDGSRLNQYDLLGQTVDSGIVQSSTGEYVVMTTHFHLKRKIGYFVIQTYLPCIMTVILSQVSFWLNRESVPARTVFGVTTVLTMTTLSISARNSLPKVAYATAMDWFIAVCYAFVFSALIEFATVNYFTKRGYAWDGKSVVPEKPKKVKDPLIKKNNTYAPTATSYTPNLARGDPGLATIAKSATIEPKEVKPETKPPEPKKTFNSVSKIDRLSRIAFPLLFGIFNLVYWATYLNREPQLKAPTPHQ
T2 sequence (P47870 25-512 limits assumed): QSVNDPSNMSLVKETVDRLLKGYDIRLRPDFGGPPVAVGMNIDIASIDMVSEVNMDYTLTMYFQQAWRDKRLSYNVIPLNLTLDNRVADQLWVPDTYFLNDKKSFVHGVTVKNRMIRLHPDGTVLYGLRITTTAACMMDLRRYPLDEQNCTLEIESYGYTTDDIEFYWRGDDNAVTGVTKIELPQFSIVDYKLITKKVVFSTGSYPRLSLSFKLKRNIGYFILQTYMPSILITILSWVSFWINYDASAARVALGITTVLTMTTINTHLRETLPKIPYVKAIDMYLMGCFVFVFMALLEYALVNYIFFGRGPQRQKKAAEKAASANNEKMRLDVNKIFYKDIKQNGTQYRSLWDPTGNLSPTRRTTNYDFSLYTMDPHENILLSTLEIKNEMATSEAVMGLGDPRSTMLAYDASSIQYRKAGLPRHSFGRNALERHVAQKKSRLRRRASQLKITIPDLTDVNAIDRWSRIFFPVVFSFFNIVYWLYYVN
T2 sequence (P18507 40-475 partner): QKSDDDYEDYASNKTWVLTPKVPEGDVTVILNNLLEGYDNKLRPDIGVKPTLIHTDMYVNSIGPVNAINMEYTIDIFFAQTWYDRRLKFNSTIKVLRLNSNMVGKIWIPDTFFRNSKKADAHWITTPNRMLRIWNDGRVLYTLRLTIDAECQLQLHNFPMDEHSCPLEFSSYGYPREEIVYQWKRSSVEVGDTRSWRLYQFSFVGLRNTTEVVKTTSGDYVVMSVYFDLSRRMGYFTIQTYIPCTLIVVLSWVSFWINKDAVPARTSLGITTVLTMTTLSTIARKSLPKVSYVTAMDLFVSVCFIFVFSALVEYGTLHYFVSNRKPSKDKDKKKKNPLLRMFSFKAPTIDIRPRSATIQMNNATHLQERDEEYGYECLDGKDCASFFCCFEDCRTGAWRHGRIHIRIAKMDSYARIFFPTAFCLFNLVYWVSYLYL

Structure (SMILES) | EC50 (GABAA α4β3δ; [1]) [nM] | Emax (GABAA α4β3δ; PAM mode, GABA EC20 10 μM) [%] | EC50 (GABAA α1β2γ2; [2]) [nM] | Emax (GABAA α1β2γ2; PAM mode) [%] | EC50 (GABAA α4β3δ) [nM] | EC50 (GABAA α1β2γ2) [nM]
C[C@@]1(O)CC[C@H]2[C@H](CC[C@@H]3[C@@H]2CC[C@]2(C)[C@@H](C4(C5CC5)COC4)CC[C@@H]32)C1 [Example 21, (3R,5R,8R,9R,10S,13S,14S,17S)-17-(3-cyclopropyloxetan-3-yl)-3,13-dimethyl-2,4,5,6,7,8,9,10,11,12,14,15,16,17-tetradecahydro-1H-cyclopenta[a]phenanthren-3-ol] | > 1500 | > 90 | 500 to 1000 | > 90 | – | –
C#CC1([C@H]2CC[C@H]3[C@@H]4CC[C@@H]5C[C@](C)(O)CC[C@@H]5[C@H]4CC[C@]23C)COC1 [Example 22, (3R,5R,8R,9R,10S,13S,14S,17S)-17-(3-ethynyloxetan-3-yl)-3,13-dimethyl-2,4,5,6,7,8,9,10,11,12,14,15,16,17-tetradecahydro-1H-cyclopenta[a]phenanthren-3-ol] | > 1500 | 50 to 90 | < 500 | > 90 | – | –
C[C@@]1(O)CC[C@H]2[C@H](CC[C@@H]3[C@@H]2CC[C@]2(C)[C@@H](C4COC4)CC[C@@H]32)C1 [Example 23, (3R,5R,8R,9R,10S,13S,14S,17R)-17-(oxetan-3-yl)-3,13-dimethyl-2,4,5,6,7,8,9,10,11,12,14,15,16,17-tetradecahydro-1H-cyclopenta[a]phenanthren-3-ol] | < 500 | 50 to 90 | < 500 | 50 to 90 | – | –
CC(=O)[C@H]1CC[C@H]2[C@@H]3CC[C@H]4C[C@H](O)CC[C@]4(C)[C@H]3CC[C@]12C [allopregnanolone, 5α-pregnane-3α-ol-20-one, reference compound] | – | > 90 | – | > 90 | < 500 | < 500
